Data as given in patent US20170260178A1 (SPERO GYRASE, INC., priority 2012, published 2017).
Converted amounts (≈) assume the structure as drawn.

Legend:
[1] = tested on: S. pyogenes (ATCC 51339); test: Bacterial assay: MIC against S. pyogenes; assay type: cell-based, Streptococcus pyogenes; conditions: Streptococcus pyogenes, ATCC51339, read-out: minimal inhibitory concentration (MIC)
[2] = tested on: S. aureus (ATCC 29213); test: Bacterial assay: MIC against S. aureus; assay type: cell-based, Staphylococcus aureus; conditions: Staphylococcus aureus, ATCC29213, read-out: minimal inhibitory concentration (MIC)

Row | Structure (SMILES) | MIC [1] [µg/mL] | MIC [2] [µg/mL]
1 | CCNC(=O)Nc1nc2cc(-c3cnc(C(C)O)nc3)cc(-c3nccc(N4CCC(C)(C(=O)O)CC4)n3)c2s1 (centres unmarked) [Compound 117, 1-[2-[2-(ethylcarbamoylamino)-5-[2-(1-hydroxyethyl)pyrimidin-5-yl]-1,3-benzothiazol-7-yl]pyrimidin-4-yl]-4-methyl-piperidine-4-carboxylic acid] | ≤ 1 | 16 (≈ 28.4 µM)
2 | CCNC(=O)Nc1nc2cc(-c3cnc(C(C)(C)O)nc3)cc(-c3cc(CN4CCS(=O)(=O)CC4)ccn3)c2s1 [Compound 191, 1-[7-[4-[(1,1-dioxo-1,4-thiazinan-4-yl)methyl]-2-pyridyl]-5-[2-(1-hydroxy-1-methyl-ethyl)pyrimidin-5-yl]-1,3-benzothiazol-2-yl]-3-ethyl-urea] | ≤ 1 | ≤ 1
3 | CCNC(=O)Nc1nc2cc(-c3cnc(C(C)O)nc3)cc(-c3cc(CN4CC(C)(O)C4)ccn3)c2s1 (centres unmarked) [Compound 66, 1-ethyl-3-[5-[2-(1-hydroxyethyl)pyrimidin-5-yl]-7-[4-[(3-hydroxy-3-methyl-azetidin-1-yl)methyl]-2-pyridyl]-1,3-benzothiazol-2-yl]urea] | ≤ 1 | 2 (≈ 3.85 µM)
4 | CCNC(=O)Nc1nc2cc(-c3cnc(C(C)(C)O)nc3)cc(-c3nccc(NCCN4CCOCC4)n3)c2s1 [Compound 91, 1-ethyl-3-[5-[2-(1-hydroxy-1-methyl-ethyl)pyrimidin-5-yl]-7-[4-(2-morpholinoethylamino)pyrimidin-2-yl]-1,3-benzothiazol-2-yl]urea] | ≤ 1 | 2 (≈ 3.55 µM)
5 | CCNC(=O)Nc1nc2cc(-c3cnc(C(C)(C)O)nc3)cc(-c3cccc(N4CCC(C)(C(=O)O)CC4)n3)c2s1 [Compound 51, 1-[6-[2-(ethylcarbamoylamino)-5-[2-(1-hydroxy-1-methyl-ethyl)pyrimidin-5-yl]-1,3-benzothiazol-7-yl]-2-pyridyl]-4-methyl-piperidine-4-carboxylic acid] | ≤ 1 | 4 (≈ 6.95 µM)
6 | CCNC(=O)Nc1nc2cc(-c3cnc(C(C)OC(=O)N4CCN(C)CC4)nc3)cc(-c3ccccn3)c2s1 (centres unmarked) [Compound 18, 1-[5-[2-(ethylcarbamoylamino)-7-(2-pyridyl)-1,3-benzothiazol-5-yl]pyrimidin-2-yl]ethyl 4-methylpiperazine-1-carboxylate] | ≤ 1 | ≤ 1
7 | CCNC(=O)Nc1nc2cc(-c3cnc(C(C)(C)O)nc3)cc(N3CCOCC3)c2s1 [Compound 151, 1-ethyl-3-[5-[2-(1-hydroxy-1-methyl-ethyl)pyrimidin-5-yl]-7-morpholino-1,3-benzothiazol-2-yl]urea] | 2 (≈ 4.52 µM) | 2 (≈ 4.52 µM)
8 | CCNC(=O)Nc1nc2cc(-c3cnc(C(C)(C)O)s3)cc(-c3ccccn3)c2s1 [Compound 48, 1-ethyl-3-[5-[2-(1-hydroxy-1-methyl-ethyl)thiazol-5-yl]-7-(2-pyridyl)-1,3-benzothiazol-2-yl]urea] | ≤ 1 | ≤ 1
9 | CCNC(=O)Nc1nc2cc(-c3cnc(C(C)(C)O)nc3)cc(-c3cc(CN4CC[S+]([O-])CC4)ccn3)c2s1 [Compound 188, 1-ethyl-3-[5-[2-(1-hydroxy-1-methyl-ethyl)pyrimidin-5-yl]-7-[4-[(1-oxo-1,4-thiazinan-4-yl)methyl]-2-pyridyl]-1,3-benzothiazol-2-yl]urea] | ≤ 1 | ≤ 1
10 | CCNC(=O)Nc1nc2cc(-c3cnc(C(C)(C)O)nc3)cc(-c3ncc(CN4CCOCC4)cn3)c2s1 [Compound 120, 1-ethyl-3-[5-[2-(1-hydroxy-1-methyl-ethyl)pyrimidin-5-yl]-7-[5-(morpholinomethyl)pyrimidin-2-yl]-1,3-benzothiazol-2-yl]urea] | ≤ 1 | ≤ 1
11 | CCNC(=O)Nc1nc2cc(-c3cnc(C(C)(C)O)nc3)cc(-c3cncc(CN4CCOCC4)n3)c2s1 [Compound 102, 1-ethyl-3-[5-[2-(1-hydroxy-1-methyl-ethyl)pyrimidin-5-yl]-7-[6-(morpholinomethyl)pyrazin-2-yl]-1,3-benzothiazol-2-yl]urea] | 16 (≈ 29.9 µM) | 16 (≈ 29.9 µM)
12 | CCNC(=O)Nc1nc2cc(-c3cnc(C(C)(C)OC(=O)CCC(=O)OC)nc3)cc(-c3ccccn3)c2s1 [Compound 20, O4-[1-[5-[2-(ethylcarbamoylamino)-7-(2-pyridyl)-1,3-benzothiazol-5-yl]pyrimidin-2-yl]-1-methyl-ethyl] O1-methyl butanedioate] | ≤ 1 | 2 (≈ 3.65 µM)
13 | CCNC(=O)Nc1nc2cc(-c3cnc(C(C)O)nc3)cc(OCc3ccc(C)nc3)c2s1 (centres unmarked) [Compound 14, 1-ethyl-3-[5-[2-(1-hydroxyethyl)pyrimidin-5-yl]-7-[(6-methyl-3-pyridyl)methoxy]-1,3-benzothiazol-2-yl]urea] | ≤ 1 | ≤ 1
14 | CCNC(=O)Nc1nc2cc(-c3cnc(C(C)(C)O)nc3)c(OCC3CCCO3)cc2s1 (centres unmarked) [Compound 3, 1-ethyl-3-[5-[2-(1-hydroxy-1-methyl-ethyl)pyrimidin-5-yl]-6-(tetrahydrofuran-2-ylmethoxy)-1,3-benzothiazol-2-yl]urea] | ≤ 1 | ≤ 1
15 | CCNC(=O)Nc1nc2cc(-c3cnc(C(C)(C)O)nc3)cc(-c3ccnc(N4CCC(C)(C(=O)O)CC4)n3)c2s1 [Compound 52, 1-[4-[2-(ethylcarbamoylamino)-5-[2-(1-hydroxy-1-methyl-ethyl)pyrimidin-5-yl]-1,3-benzothiazol-7-yl]pyrimidin-2-yl]-4-methyl-piperidine-4-carboxylic acid] | ≤ 1 | 2 (≈ 3.47 µM)
16 | CCNC(=O)Nc1nc2cc(-c3cnc(C(C)(C)O)nc3)c(OCCOC)cc2s1 [Compound 183, 1-ethyl-3-[5-[2-(1-hydroxy-1-methyl-ethyl)pyrimidin-5-yl]-6-(2-methoxyethoxy)-1,3-benzothiazol-2-yl]urea] | ≤ 1 | ≤ 1
17 | CCNC(=O)Nc1nc2cc(-c3ccc(C(O)c4cccnc4)nc3)c(F)cc2s1 (centres unmarked) [Compound 4, 1-ethyl-3-[6-fluoro-5-[6-[hydroxy(3-pyridyl)methyl]-3-pyridyl]-1,3-benzothiazol-2-yl]urea] | ≤ 1 | ≤ 1
18 | CCNC(=O)Nc1nc2cc(-c3cnc(C(C)(C)O)nc3)cc(OC)c2s1 [Compound 12, 1-ethyl-3-[5-[2-(1-hydroxy-1-methyl-ethyl)pyrimidin-5-yl]-7-methoxy-1,3-benzothiazol-2-yl]urea] | ≤ 1 | ≤ 1
19 | CCNC(=O)Nc1nc2cc(-c3cnc(C(C)O)nc3)cc(-c3cc(CN4CCC[C@H]4C(=O)O)ccn3)c2s1 (stereo partly drawn) [Compound 72, (2S)-1-[[2-[2-(ethylcarbamoylamino)-5-[2-(1-hydroxyethyl)pyrimidin-5-yl]-1,3-benzothiazol-7-yl]-4-pyridyl]methyl]pyrrolidine-2-carboxylic acid] | 8 (≈ 14.6 µM) | 8 (≈ 14.6 µM)
20 | CCNC(=O)Nc1nc2cc(-c3cnc(C(C)O)nc3)cc(-c3ncc(F)c(N4CCOCC4)n3)c2s1 (centres unmarked) [Compound 106, 1-ethyl-3-[7-(5-fluoro-4-morpholino-pyrimidin-2-yl)-5-[2-(1-hydroxyethyl)pyrimidin-5-yl]-1,3-benzothiazol-2-yl]urea] | ≤ 1 | ≤ 1
21 | CCNC(=O)Nc1nc2cc(-c3cnc(C(C)(C)O)nc3)cc(-c3nccc(CN4CCOCC4)n3)c2s1 [Compound 101, 1-ethyl-3-[5-[2-(1-hydroxy-1-methyl-ethyl)pyrimidin-5-yl]-7-[4-(morpholinomethyl)pyrimidin-2-yl]-1,3-benzothiazol-2-yl]urea] | ≤ 1 | ≤ 1
22 | CCNC(=O)Nc1nc2cc(-c3cnc(C(O)(CC)CC)nc3)cc(-c3ccccn3)c2s1 [Compound 98, 1-ethyl-3-[5-[2-(1-ethyl-1-hydroxy-propyl)pyrimidin-5-yl]-7-(2-pyridyl)-1,3-benzothiazol-2-yl]urea] | ≤ 1 | ≤ 1
23 | CCNC(=O)Nc1nc2cc(-c3cnc(C(C)(C)O)nc3)cc(-c3cc(CN4CCC(O)C4)ccn3)c2s1 (centres unmarked) [Compound 29, 1-ethyl-3-[5-[2-(1-hydroxy-1-methyl-ethyl)pyrimidin-5-yl]-7-[4-[(3-hydroxypyrrolidin-1-yl)methyl]-2-pyridyl]-1,3-benzothiazol-2-yl]urea] | ≤ 1 | ≤ 1
24 | CCNC(=O)Nc1nc2cc(-c3cnc(C(C)(C)O)cn3)cc(-c3ccccn3)c2s1 [Compound 49, 1-ethyl-3-[5-[5-(1-hydroxy-1-methyl-ethyl)pyrazin-2-yl]-7-(2-pyridyl)-1,3-benzothiazol-2-yl]urea] | ≤ 1 | ≤ 1
25 | CCNC(=O)Nc1nc2cc(-c3cnc(C(C)(C)O)nc3)cc(-c3nccc(NCC(C)(C)O)n3)c2s1 [Compound 103, 1-ethyl-3-[5-[2-(1-hydroxy-1-methyl-ethyl)pyrimidin-5-yl]-7-[4-[(2-hydroxy-2-methyl-propyl)amino]pyrimidin-2-yl]-1,3-benzothiazol-2-yl]urea] | ≤ 1 | 2 (≈ 3.83 µM)
26 | CCNC(=O)Nc1nc2cc(-c3cnc(C4(O)CN(C(=O)OC(C)(C)C)C4)nc3)cc(-c3ccccn3)c2s1 [Compound 162, tert-butyl 3-[5-[2-(ethylcarbamoylamino)-7-(2-pyridyl)-1,3-benzothiazol-5-yl]pyrimidin-2-yl]-3-hydroxy-azetidine-1-carboxylate] | ≤ 1 | ≤ 1
27 | CCNC(=O)Nc1nc2cc(-c3cnc(C(C)(C)O)nc3)cc(-c3nccc(NCCOC)n3)c2s1 [Compound 78, 1-ethyl-3-[5-[2-(1-hydroxy-1-methyl-ethyl)pyrimidin-5-yl]-7-[4-(2-methoxyethylamino)pyrimidin-2-yl]-1,3-benzothiazol-2-yl]urea] | ≤ 1 | ≤ 1
28 | CCNC(=O)Nc1nc2cc(-c3cnc(C(C)(C)O)nc3)cc(-c3cc(CN4CCCC4)ccn3)c2s1 [Compound 26, 1-ethyl-3-[5-[2-(1-hydroxy-1-methyl-ethyl)pyrimidin-5-yl]-7-[4-(pyrrolidin-1-ylmethyl)-2-pyridyl]-1,3-benzothiazol-2-yl]urea] | ≤ 1 | ≤ 1
